Results published in patent EP3868759A1, “2,3,5-SUBSTITUTED PYRROLO[2,3-B]PYRIDINES AS ERBB MODULATORS USEFUL FOR TREATING CANCER” (PearlRiver Bio GmbH, priority 2020, dated 2021).

Columns and labels:
A431 = test: CellTiter-Glo cell viability, A431; assay type: cell-based; details: Homo sapiens, A-431, 72 h, read-out: A431 CTG IC50
Description: (§1) The CellTiter-Glo Luminescent Cell Viability Assay (Promega) is a homogeneous method of determining the number of viable cells in culture. It is based on quantification of ATP, indicating the presence of metabolically active cells. Cells are seeded on day 1 at cell numbers that assure assay linearity and optimal signal intensity. After incubation for 24h in humidified chambers at 37°C and 5% CO2, compounds in DMSO are added at different concentrations. Cells are further incubated for 72 h at 37°C and 5% CO2. Cells treated with the compound vehicle DMSO are used as positive controls and cells treated with 10 µM Staurosporine serve as negative controls. At day 5 the CellTiter Glo Reagent is prepared according to the instructions of the kit (Promega Inc.): Reagent is mixed 1:1 with cell culture medium. Thereon, mixture and assay plates are equilibrated at room temperature for 20 min. Equal volumes of the reagent-medium-mixture is added to the volume of culture medium present in each well. The plates are mixed at ∼200 rpm for 2 minutes on an orbital shaker. The microplates are then incubated at room temperature for 10 minutes for stabilization of the luminescent signal. Following incubation the luminescence is recorded on a Victor microplate reader (Perkin Elmer) using a 200 ms integration time. The data is then analyzed with Excel using the XLFIT Plugin (dose response Fit 205) for IC50-determination. As quality control the Z'-factor is calculated from 16 positive and negative control values. Only assay results showing a Z'-factor ≥ 0.5 are used for further analysis.

[1] = system: EGFR Exon 20 InsNPH Ba/F3; test: CellTiter-Glo cell viability, EGFR Exon 20 InsNPH Ba/F3; assay type: cell-based; details: Mus musculus, BaF3, 72 h, read-out: EGFR Exon 20 InsNPH Ba/F3 CTG IC50
Description: as §1

Cuto-17 = test: CellTiter-Glo cell viability, Cuto-17; assay type: cell-based; details: CUTO17, 72 h, read-out: Cuto-17 CTG IC50
Description: as §1

EGFR T790M L858R = EGFR T790M L858R (Homo sapiens, UniProt P00533, L858R/T790M); test: Lance assay, EGFR T790M L858R; details: biochemical Lance assay
EGFR T790M L858R, sequence (P00533 25-1210 T790M/L858R): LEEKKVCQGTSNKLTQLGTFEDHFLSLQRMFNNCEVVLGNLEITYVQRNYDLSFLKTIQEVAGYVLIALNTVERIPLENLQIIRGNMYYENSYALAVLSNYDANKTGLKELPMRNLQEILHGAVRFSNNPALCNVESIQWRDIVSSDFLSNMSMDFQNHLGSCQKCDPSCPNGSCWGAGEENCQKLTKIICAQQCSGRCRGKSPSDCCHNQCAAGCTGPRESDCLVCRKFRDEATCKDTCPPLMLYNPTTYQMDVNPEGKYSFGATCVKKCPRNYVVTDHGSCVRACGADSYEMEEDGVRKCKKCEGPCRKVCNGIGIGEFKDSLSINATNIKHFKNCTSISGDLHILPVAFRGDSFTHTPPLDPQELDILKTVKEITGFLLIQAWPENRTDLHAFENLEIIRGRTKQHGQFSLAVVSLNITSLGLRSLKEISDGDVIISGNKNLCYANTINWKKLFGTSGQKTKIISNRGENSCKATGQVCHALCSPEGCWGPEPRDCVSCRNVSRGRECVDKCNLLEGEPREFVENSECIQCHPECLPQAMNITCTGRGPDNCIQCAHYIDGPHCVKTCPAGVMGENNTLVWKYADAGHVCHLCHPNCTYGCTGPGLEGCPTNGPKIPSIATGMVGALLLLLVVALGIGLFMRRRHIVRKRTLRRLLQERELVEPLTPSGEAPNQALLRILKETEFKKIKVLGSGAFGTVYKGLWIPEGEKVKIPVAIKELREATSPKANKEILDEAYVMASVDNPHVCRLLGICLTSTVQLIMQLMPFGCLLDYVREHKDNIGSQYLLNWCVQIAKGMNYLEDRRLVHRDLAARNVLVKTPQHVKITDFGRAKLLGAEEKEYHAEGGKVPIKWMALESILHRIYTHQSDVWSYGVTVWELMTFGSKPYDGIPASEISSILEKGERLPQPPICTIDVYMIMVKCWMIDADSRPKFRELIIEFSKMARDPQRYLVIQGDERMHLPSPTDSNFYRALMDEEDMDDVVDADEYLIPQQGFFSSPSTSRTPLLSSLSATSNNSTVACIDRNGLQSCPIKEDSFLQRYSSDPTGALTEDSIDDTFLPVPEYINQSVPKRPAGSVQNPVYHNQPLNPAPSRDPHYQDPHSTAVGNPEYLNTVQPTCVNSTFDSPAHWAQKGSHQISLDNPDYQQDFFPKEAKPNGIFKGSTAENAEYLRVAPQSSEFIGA

[2] = system: Her2 Exon 20 InsYVMA Ba/F3; test: CellTiter-Glo cell viability, Her2 Exon 20 InsYVMA Ba/F3; assay type: cell-based; details: Mus musculus, BaF3, 72 h, read-out: Her2 Exon 20 InsYVMA Ba/F3 CTG IC50
Description: as §1

EGFR wt = EGFR wt (Homo sapiens, UniProt P00533); test: Lance assay, EGFR wt; details: biochemical Lance assay
EGFR wt, sequence (P00533 25-1210): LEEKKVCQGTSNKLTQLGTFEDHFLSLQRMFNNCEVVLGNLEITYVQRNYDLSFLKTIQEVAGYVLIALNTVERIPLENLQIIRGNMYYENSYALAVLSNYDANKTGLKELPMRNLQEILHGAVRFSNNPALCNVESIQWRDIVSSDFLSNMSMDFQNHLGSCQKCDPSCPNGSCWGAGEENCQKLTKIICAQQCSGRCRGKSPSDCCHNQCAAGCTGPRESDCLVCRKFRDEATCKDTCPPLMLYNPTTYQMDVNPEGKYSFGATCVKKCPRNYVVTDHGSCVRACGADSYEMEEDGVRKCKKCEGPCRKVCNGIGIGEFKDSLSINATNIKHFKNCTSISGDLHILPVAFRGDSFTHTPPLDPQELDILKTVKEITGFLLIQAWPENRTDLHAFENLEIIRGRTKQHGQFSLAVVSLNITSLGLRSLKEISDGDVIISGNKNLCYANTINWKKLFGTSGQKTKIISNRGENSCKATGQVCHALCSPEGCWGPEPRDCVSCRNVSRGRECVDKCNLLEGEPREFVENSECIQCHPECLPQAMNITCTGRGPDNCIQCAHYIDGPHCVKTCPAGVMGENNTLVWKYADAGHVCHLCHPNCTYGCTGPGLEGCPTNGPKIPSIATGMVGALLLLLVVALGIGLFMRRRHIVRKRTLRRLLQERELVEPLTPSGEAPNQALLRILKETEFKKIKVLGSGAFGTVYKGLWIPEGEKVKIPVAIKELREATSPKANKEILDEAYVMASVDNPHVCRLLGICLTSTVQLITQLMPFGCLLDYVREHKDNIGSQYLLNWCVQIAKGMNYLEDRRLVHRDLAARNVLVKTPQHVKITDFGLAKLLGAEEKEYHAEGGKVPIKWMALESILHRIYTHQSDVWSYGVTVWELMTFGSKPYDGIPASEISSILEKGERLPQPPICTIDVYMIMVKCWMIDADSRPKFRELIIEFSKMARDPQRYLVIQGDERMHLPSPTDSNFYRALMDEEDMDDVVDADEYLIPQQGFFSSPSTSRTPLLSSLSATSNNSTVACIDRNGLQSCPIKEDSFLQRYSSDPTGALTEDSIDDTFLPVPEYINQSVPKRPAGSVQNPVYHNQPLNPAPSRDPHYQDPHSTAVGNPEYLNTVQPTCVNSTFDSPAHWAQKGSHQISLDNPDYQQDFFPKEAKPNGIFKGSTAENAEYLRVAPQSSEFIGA

H1975 = test: CellTiter-Glo cell viability, H1975; assay type: cell-based; details: Homo sapiens, NCI-H1975, 72 h, read-out: H1975 CTG IC50
Description: as §1

EGFR vIII Ba/F3 = test: CellTiter-Glo cell viability, EGFR vIII Ba/F3; assay type: cell-based; details: Mus musculus, BaF3, 72 h, read-out: EGFR vIII Ba/F3 CTG IC50 /
Description: as §1

HER2 INS YVMA = target: T1, HER2 INS YVMA (Homo sapiens, UniProt P04626, INS775YVMA); test: Lance Kinase Activity Assay, Her2 Exon 20 InsYVMA; details: biochemical Lance assay
T1 construct: purchased DPF
T1 sequence (P04626 with tags, fused parts or gaps INS775YVMA): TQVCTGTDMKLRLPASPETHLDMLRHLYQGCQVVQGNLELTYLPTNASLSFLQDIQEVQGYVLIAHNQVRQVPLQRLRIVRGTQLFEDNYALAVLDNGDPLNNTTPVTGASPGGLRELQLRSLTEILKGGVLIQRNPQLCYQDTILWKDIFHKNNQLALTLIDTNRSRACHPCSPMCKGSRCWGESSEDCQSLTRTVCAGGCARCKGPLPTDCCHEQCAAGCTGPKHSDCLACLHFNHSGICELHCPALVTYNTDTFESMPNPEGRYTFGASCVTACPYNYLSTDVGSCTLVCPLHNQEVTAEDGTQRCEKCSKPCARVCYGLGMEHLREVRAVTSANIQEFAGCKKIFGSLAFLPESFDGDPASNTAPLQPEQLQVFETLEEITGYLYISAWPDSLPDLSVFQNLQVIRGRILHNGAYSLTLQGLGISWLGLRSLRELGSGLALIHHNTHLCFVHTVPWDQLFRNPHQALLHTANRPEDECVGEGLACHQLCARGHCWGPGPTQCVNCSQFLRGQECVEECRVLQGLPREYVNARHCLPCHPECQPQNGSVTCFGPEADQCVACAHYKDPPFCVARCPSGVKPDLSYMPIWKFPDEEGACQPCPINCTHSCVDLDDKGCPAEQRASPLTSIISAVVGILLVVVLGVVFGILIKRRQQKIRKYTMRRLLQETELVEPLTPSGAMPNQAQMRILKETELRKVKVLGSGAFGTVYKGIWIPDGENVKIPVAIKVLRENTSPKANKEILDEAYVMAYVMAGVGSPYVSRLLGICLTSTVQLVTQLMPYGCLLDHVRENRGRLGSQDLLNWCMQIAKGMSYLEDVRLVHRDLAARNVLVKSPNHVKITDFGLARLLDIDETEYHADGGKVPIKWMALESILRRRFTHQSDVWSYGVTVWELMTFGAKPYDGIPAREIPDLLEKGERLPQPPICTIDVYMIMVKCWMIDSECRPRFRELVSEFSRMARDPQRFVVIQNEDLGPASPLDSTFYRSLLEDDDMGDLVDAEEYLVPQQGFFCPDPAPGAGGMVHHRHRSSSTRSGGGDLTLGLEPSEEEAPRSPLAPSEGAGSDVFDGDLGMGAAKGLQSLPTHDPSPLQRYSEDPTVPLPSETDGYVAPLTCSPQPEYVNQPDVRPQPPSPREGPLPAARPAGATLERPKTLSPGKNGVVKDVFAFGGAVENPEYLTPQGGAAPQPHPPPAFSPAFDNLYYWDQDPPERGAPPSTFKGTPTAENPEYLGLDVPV
Description: This protocol describes how the Lance Kinase Activity Assay was performed to determine IC50 values of compounds of general formula (I) against HER2 INS YVMA. The principle behind this enzymatic assay is based upon the phosphorylation of the Ulight-peptide substrate. It is detected by using a specific EU-labeled anti-phospho peptide antibody. The binding of the Eu labeled anti-phospho peptide antibody to the phosphorylated ULight labeled peptide gives rise to a FRET-signal. Binding of an inhibitor to the kinase prevents phosphorylation of the Ulight-substrate, resulting in a loss of FRET. In table 2 is summarized the relevant information for the LANCE assay. Table 2: Reagents, stock concentrations and final assay concentrations for Her2 INS YVMA.
The compounds of general formula (I) summarized in Table 3 were serial diluted from a 10 mM DMSO stock solution 1:3 over 8 steps in a total volume of 20 µl. For every sample, 8 µl of kinase-substrate mix was transferred into a suitable assay plate (e.g. Corning #3673). Compound was added via pintool transfer (10nl/well) using a Biomek FX robot (BeckmanCoulter). Reaction was started by addition of 2µl ATP working solution and mixed using variomag teleshaker (Thermo Fischer Scientific). After 1 h incubation at room temperature the reaction was stopped with 10µl detection mix containing the Eu-labeled phosphospecific antibody and 10mM EDTA. After a second incubation period of 1 h at room temperature the FRET signal was measured at 340 nm excitation, 665 nm and 615 nm emission (for the ULight-substrate and Eu-AB, respectively) with an Envision spectrophotometer (Perkin Elmer, Waltham, MA, USA) with 50 µs delay and 300 µs integration time. IC50 values were determined from the sigmoidal dose response curves with the software Quattro Workflow (Quattro GmbH, Munich, Germany).

SMILES | IC50 (A431) [nM] | IC50 [1] [nM] | IC50 (Cuto-17) [nM] | IC50 (EGFR T790M L858R) [nM] | IC50 [2] [nM] | IC50 (EGFR wt) [nM] | IC50 (H1975) [nM] | IC50 (EGFR vIII Ba/F3) [nM] | IC50 (HER2 INS YVMA) [nM]
C=CC(=O)Nc1cc(-c2c(-c3cnn(C)c3)[nH]c3ncc(C(=O)OC(C)C)cc23)cc(F)c1C [Example 2, Isopropyl 3-(3-acrylamido-5-fluoro-4-methylphenyl)-2-(1-methyl-1H-pyrazol-4-yl)-1H-pyrrolo[2,3-b]pyridine-5-carboxylate 2,2,2-trifluoroacetate] | 1000 to 10000 | 100 to 500 | 100 to 500 | ≤ 50 | 100 to 500 | ≤ 50 | 100 to 500 | ≤ 50 | ≤ 50
C=CC(=O)Nc1cc(-c2c(-c3cnn(C)c3)[nH]c3ncc(OCC)cc23)cc(F)c1C [Example 3, N-(5-(5-ethoxy-2-(1-methyl-1H-pyrazol-4-yl)-1H-pyrrolo[2,3-b]pyridin-3-yl)-3-fluoro-2-methylphenyl)acrylamide 2,2,2-trifluoroacetate] | 1000 to 10000 | 50 to 100 | ≤ 50 | ≤ 50 | 100 to 500 | ≤ 50 | 100 to 500 | ≤ 50 | ≤ 50
C=CC(=O)Nc1cc(-c2c(-c3cnn(CC)c3)[nH]c3ncc(C(=O)OC(C)C)cc23)ccc1C [Example 6, isopropyl 3-(3-acrylamido-4-methylphenyl)-2-(1-ethyl-1H-pyrazol-4-yl)-1H-pyrrolo[2,3-b]pyridine-5-carboxylate] | 1000 to 10000 | 100 to 500 | 500 to 1000 | ≤ 50 | 100 to 500 | ≤ 50 | 500 to 1000 | 100 to 500 | ≤ 50
C=CC(=O)Nc1cc(-c2c(-c3cnn(CC)c3)[nH]c3ncc(C(=O)OC(C)C)c(C)c23)ccc1C [Example 8, isopropyl 3-(3-acrylamido-4-methylphenyl)-2-(1-ethyl-1 H-pyrazol-4-yl)-4-methyl-1 H-pyrrolo[2,3-b]pyridine-5-carboxylate] | 1000 to 10000 | ≤ 50 | 100 to 500 | ≤ 50 | 100 to 500 | ≤ 50 | 100 to 500 | 100 to 500 | ≤ 50
C=CC(=O)Nc1cc(-c2c(-c3cnn(Cc4ccccc4)c3)[nH]c3ncc(C(=O)OC(C)C)c(C)c23)ccc1C [Example 9, isopropyl 3-(3-acrylamido-4-methylphenyl)-2-(1-benzyl-1 H-pyrazol-4-yl)-4-methyl-1 H-pyrrolo[2,3-b]pyridine-5-carboxylate] | 1000 to 10000 | 100 to 500 | 500 to 1000 | 100 to 500 | 500 to 1000 | ≤ 50 | 500 to 1000 | 100 to 500 | 500 to 1000
C=CC(=O)Nc1cc(-c2c(-c3cnn(C4CC4)c3)[nH]c3ncc(C(=O)OC(C)C)c(C)c23)ccc1C [Example 10, isopropyl 3-(3-acrylamido-4-methylphenyl)-2-(1-cyclopropyl-1 H-pyrazol-4-yl)-4-methyl-1 H-pyrrolo[2,3-b]pyridine-5-carboxylate] | 1000 to 10000 | 50 to 100 | 100 to 500 | 50 to 100 | 100 to 500 | ≤ 50 | 500 to 1000 | 100 to 500 | 50 to 100
C=CC(=O)Nc1cc(-c2c(-c3cnn(CCOC)c3)[nH]c3ncc(C(=O)OC(C)C)c(C)c23)ccc1C [Example 11, isopropyl 3-(3-acrylamido-4-methylphenyl)-2-(1-(2-methoxyethyl)-1 H-pyrazol-4-yl)-4-methyl-1 H-pyrrolo[2,3-b]pyridine-5-carboxylate] | 1000 to 10000 | 100 to 500 | 100 to 500 | ≤ 50 | 100 to 500 | ≤ 50 | 500 to 1000 | 100 to 500 | ≤ 50
C=CC(=O)Nc1cc(-c2c(-c3cnn(C)c3)[nH]c3ncc(O[C@@H](C)CC)cc23)ccc1C [Example 12, (S)-N-(5-(5-(sec-butoxy)-2-(1-methyl-1H-pyrazol-4-yl)-1H-pyrrolo[2,3-b]pyridin-3-yl)-2-methylphenyl)acrylamide 2,2,2-trifluoroacetate] | 1000 to 10000 | 100 to 500 | 100 to 500 | ≤ 50 | 100 to 500 | ≤ 50 | 500 to 1000 | 100 to 500 | ≤ 50
C=CC(=O)Nc1cc(-c2c(-c3cnn(C(C)C)c3)[nH]c3ncc(C(=O)OC(C)C)c(C)c23)ccc1C [Example 13, isopropyl 3-(3-acrylamido-4-methylphenyl)-2-(1-isopropyl-1 H-pyrazol-4-yl)-4-methyl-1H-pyrrolo[2,3-b]pyridine-5-carboxylate] | 1000 to 10000 | ≤ 50 | 100 to 500 | 50 to 100 | 100 to 500 | ≤ 50 | 100 to 500 | 100 to 500 | 100 to 500
C=CC(=O)Nc1cc(-c2c(-c3cnn(CCC)c3)[nH]c3ncc(C(=O)OC(C)C)c(C)c23)ccc1C [Example 14, isopropyl 3-(3-acrylamido-4-methylphenyl)-4-methyl-2-(1-propyl-1 H-pyrazol-4-yl)-1H-pyrrolo[2,3-b]pyridine-5-carboxylate] | 1000 to 10000 | 50 to 100 | 100 to 500 | 50 to 100 | 100 to 500 | ≤ 50 | 100 to 500 | 100 to 500 | 100 to 500
C=CC(=O)Nc1cc(-c2c(-c3cnn(C4CCC4)c3)[nH]c3ncc(C(=O)OC(C)C)c(C)c23)ccc1C [Example 16, isopropyl 3-(3-acrylamido-4-methylphenyl)-2-(1-cyclobutyl-1 H-pyrazol-4-yl)-4-methyl-1H-pyrrolo[2,3-b]pyridine-5-carboxylate] | 1000 to 10000 | 100 to 500 | 500 to 1000 | 100 to 500 | 100 to 500 | ≤ 50 | 500 to 1000 | 100 to 500 | 500 to 1000
C=CC(=O)Nc1cc(-c2c(-c3cnn(CCN4CCOCC4)c3)[nH]c3ncc(C(=O)OC(C)C)c(C)c23)ccc1C [Example 17, isopropyl 3-(3-acrylamido-4-methylphenyl)-4-methyl-2-(1-(2-morpholinoethyl)-1 H-pyrazol-4-yl)-1 H-pyrrolo[2,3-b]pyridine-5-carboxylate] | 1000 to 10000 | 100 to 500 | 100 to 500 | ≤ 50 | 100 to 500 | ≤ 50 | 500 to 1000 | 100 to 500 | ≤ 50
C=CC(=O)Nc1cc(-c2c(-c3cnn(C4COC4)c3)[nH]c3ncc(C(=O)OC(C)C)c(C)c23)ccc1C [Example 19, isopropyl 3-(3-acrylamido-4-methylphenyl)-4-methyl-2-(1-(oxetan-3-yl)-1 H-pyrazol-4-yl)-1 H-pyrrolo[2,3-b]pyridine-5-carboxylate] | 1000 to 10000 | ≤ 50 | 100 to 500 | ≤ 50 | 100 to 500 | ≤ 50 | 100 to 500 | 100 to 500 | ≤ 50
